Values of other authors as cited in US20100196363A1, “CANCER TREATMENT COMBINATION THERAPY COMPRISING VINFLUNINE AND TRASTUZUMAB” (Pierre Fabre Medicament, priority 2007, published 2010).

Test system: breast cancer
Conditions: vinflunine alone, same dosage, regimen and period; breast cancer patients

CC[C@]12C=CCN3CC[C@@]4(c5cc([C@@]6(C(=O)OC)C[C@@H]7C[C@@H](C(C)(F)F)CN(Cc8c6[nH]c6ccccc86)C7)c(OC)cc5N(C)[C@H]4[C@@](O)(C(=O)OC)[C@@H]1OC(C)=O)[C@@H]32 [Vinflunine, 20′,20′difluoro-3′,4′-dihydrovinorelbine]
Overall Response (RECIST): about 30%
